Data: ChEMBL document CHEMBL5096202, “Carbon-silicon switch led to the discovery of novel synthetic cannabinoids with therapeutic effects in a mouse model of multiple sclerosis” (Eur J Med Chem, 2021)

How the values were obtained:
[1] = biological target: T1, Cannabinoid receptor 2 (Homo sapiens, UniProt P34972); experiment: Agonist activity at recombinant human CB2 receptor expressed in CHO cells assessed as inhibition of forskolin-induced cAMP accumulation by measuring maximum efficacy preincubated for 15 mins followed by forskolin stimulation and measured after 15 mins by HTRF assay relative to control; assay type: functional, cell-based; details: filed as agonist, time 30.0 min
T1 sequence (P34972 whole entry): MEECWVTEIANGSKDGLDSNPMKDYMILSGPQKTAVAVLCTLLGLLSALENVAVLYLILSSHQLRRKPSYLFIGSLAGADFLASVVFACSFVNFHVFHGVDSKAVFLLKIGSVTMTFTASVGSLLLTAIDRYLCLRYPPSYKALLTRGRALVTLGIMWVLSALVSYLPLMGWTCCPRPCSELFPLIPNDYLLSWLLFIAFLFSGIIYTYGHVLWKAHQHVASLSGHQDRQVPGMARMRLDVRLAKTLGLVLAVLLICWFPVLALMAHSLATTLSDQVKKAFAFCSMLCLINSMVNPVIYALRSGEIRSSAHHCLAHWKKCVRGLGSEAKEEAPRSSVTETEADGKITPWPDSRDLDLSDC

[2] = biological target: T2, Cannabinoid receptor 1 (Homo sapiens, UniProt P21554); experiment: Displacement of [3H]-CP55940 from recombinant human CB1 receptor expressed in CHO cells assessed as inhibition constant incubated for 120 mins by radioligand binding assay; assay type: cell-based
T2 sequence (P21554 whole entry): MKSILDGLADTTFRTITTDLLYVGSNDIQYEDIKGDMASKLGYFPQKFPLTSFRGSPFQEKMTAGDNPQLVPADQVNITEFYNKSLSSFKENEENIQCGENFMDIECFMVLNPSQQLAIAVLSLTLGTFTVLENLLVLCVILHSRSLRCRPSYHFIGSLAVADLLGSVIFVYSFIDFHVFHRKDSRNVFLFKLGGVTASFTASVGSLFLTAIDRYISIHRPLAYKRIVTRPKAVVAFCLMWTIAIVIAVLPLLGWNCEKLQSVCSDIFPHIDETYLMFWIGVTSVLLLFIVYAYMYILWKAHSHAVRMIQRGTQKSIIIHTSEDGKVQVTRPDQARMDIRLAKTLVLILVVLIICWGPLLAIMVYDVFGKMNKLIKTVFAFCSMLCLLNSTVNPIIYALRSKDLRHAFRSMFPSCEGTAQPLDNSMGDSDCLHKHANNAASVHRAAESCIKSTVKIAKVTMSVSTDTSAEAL

[3] = biological target: T1, Cannabinoid receptor 2; experiment: Displacement of [3H]-CP55940 from recombinant human CB2 receptor expressed in CHO cells assessed as inhibition constant incubated for 120 mins by radioligand binding assay; assay type: cell-based
[4] = biological target: T2, Cannabinoid receptor 1; experiment: Agonist activity at recombinant human CB1 receptor expressed in CHO cells assessed as inhibition of forskolin-induced cAMP accumulation preincubated for 15 mins followed by forskolin stimulation and measured after 15 mins by HTRF assay; assay type: functional, cell-based
[5] = biological target: T1, Cannabinoid receptor 2; experiment: Agonist activity at recombinant human CB2 receptor expressed in CHO cells assessed as inhibition of forskolin-induced cAMP accumulation preincubated for 15 mins followed by forskolin stimulation and measured after 15 mins by HTRF assay; assay type: functional, cell-based
[6] = biological target: T2, Cannabinoid receptor 1; experiment: Agonist activity at recombinant human CB1 receptor expressed in CHO cells assessed as inhibition of forskolin-induced cAMP accumulation by measuring maximum efficacy preincubated for 15 mins followed by forskolin stimulation and measured after 15 mins by HTRF assay relative to control; assay type: functional, cell-based; details: filed as agonist, time 30.0 min
[7] = Metabolic stability in human liver microsomes assessed as half life; assay type: ADME, Microsome
[8] = Metabolic stability in rat liver microsomes assessed as half life; assay type: ADME, Microsome
[9] = Metabolic stability in mouse liver microsomes assessed as half life; assay type: ADME, Microsome
[10] = Metabolic stability in human liver microsomes assessed as intrinsic clearance; assay type: ADME, Microsome; details: read-out: CLH
[11] = Metabolic stability in rat liver microsomes assessed as intrinsic clearance; assay type: ADME, Microsome; details: read-out: CLH
[12] = Metabolic stability in mouse liver microsomes assessed as intrinsic clearance; assay type: ADME, Microsome; details: read-out: CLH

CCCC[Si](C)(C)c1cc(O)c2c(c1)OC(C)(C)c1ccc(C)cc1-2
Emax [1]: 90.4% | Ki [2]: 5.15 nM | Ki [3]: 5.01 nM | EC50 [4]: 400 nM | EC50 [5]: 268 nM | Emax [6]: 102%

CCCCCC[Si](C)(C)c1cc(O)c(C2CCCCCC2)c(OC)c1
Emax [1]: 98.7% | Ki [2]: 182 nM | Ki [3]: 67.2 nM | EC50 [4]: 3120 nM | EC50 [5]: 82.7 nM | Emax [6]: 67.8%

CCCCCC[Si](C)(C)c1cc(O)c(C2CCCC2)c(OC)c1
Emax [1]: 89.8% | Ki [2]: 74.8 nM | Ki [3]: 167 nM | EC50 [4]: 709 nM | EC50 [5]: 236 nM | Emax [6]: 81.6%

CCCCCC[Si](C)(C)c1cc(O)c(C2CCCCC2)c(O)c1
Emax [1]: 95.5% | Ki [2]: 17.7 nM | Ki [3]: 9.08 nM | EC50 [4]: 453 nM | EC50 [5]: 55 nM | Emax [6]: 98.6%

CCCCCC[Si](C)(C)c1cc(O)c2c(c1)OC(C)(C)c1ccc(C)cc1-2
Emax [1]: 862% | Ki [2]: 0.79 nM | Ki [3]: 2.21 nM | EC50 [4]: 12.3 nM | EC50 [5]: 32.6 nM | Emax [6]: 98.4%

CC[Si](C)(C)c1cc(O)c2c(c1)OC(C)(C)[C@@H]1CCC(C)=C[C@@H]21
Emax [1]: 84.8% | Ki [2]: 19.3 nM | Ki [3]: 1070 nM | EC50 [5]: 352 nM

CCCCCCC(C)(C)c1cc(OC)c([C@H]2C=C(CO)[C@H]3C[C@@H]2C3(C)C)c(OC)c1
Emax [1]: 101% | half-life [7]: 20.4 min | half-life [8]: 18.2 min | half-life [9]: 7.84 min | CLint scaled [10]: 85.4 mL/min/kg | CLint scaled [11]: 137 mL/min/kg | CLint scaled [12]: 696 mL/min/kg

CCCC[Si](C)(C)c1cc(O)c(C2CCCC2)c(OC)c1
Emax [1]: 85.4% | Ki [2]: 600 nM | Ki [3]: 903 nM | EC50 [5]: 1000 nM

CCCCCC[Si](C)(C)c1cc(O)c2c(c1)OC(C)(C)[C@@H]1CCC(C)=C[C@@H]21
Emax [1]: 90.2% | Ki [2]: 0.8 nM | Ki [3]: 7.41 nM | EC50 [4]: 5.94 nM | EC50 [5]: 20.2 nM | Emax [6]: 99.2%

CCCC[Si](C)(C)c1cc(O)c2c(c1)OC(C)(C)c1ccc(CO)cc1-2
Emax [1]: 92.8% | Ki [2]: 2.79 nM | Ki [3]: 3.49 nM | EC50 [4]: 214 nM | EC50 [5]: 267 nM | Emax [6]: 94.8%

C=C(C)[C@@H]1CCC(C)=C[C@H]1c1c(O)cc([Si](C)(C)CCCC)cc1O
Emax [1]: 82.7% | Ki [2]: 15 nM | Ki [3]: 7.25 nM | EC50 [4]: 403 nM | EC50 [5]: 190 nM | Emax [6]: 94.6%

CCCC[Si](C)(C)c1cc(OC)c([C@H]2C=C(CO)[C@H]3C[C@@H]2C3(C)C)c(OC)c1
Emax [1]: 83.6% | Ki [2]: 454 nM | Ki [3]: 227 nM | EC50 [5]: 899 nM

CCCCCC[Si](C)(C)c1cc(O)c2c(c1)OC(C)(C)c1ccc(CO)cc1-2
Emax [1]: 92.7% | Ki [2]: 0.35 nM | Ki [3]: 1.25 nM | EC50 [4]: 59.1 nM | EC50 [5]: 27400 nM | Emax [6]: 93%

CCCCCC[Si](C)(C)c1cc(O)c(C2CCCC2)c(O)c1
Emax [1]: 104% | Ki [2]: 64.2 nM | Ki [3]: 42.3 nM | EC50 [5]: 446 nM
